The record followed here is US20170000749A1, “Methods for Treating Cognitive Disorders Using Inhibitors of Histone Deacetylase” (Forum Pharmaceuticals, Inc., priority 2008, published 2017).

Each structure is given as a SMILES string. Like-named read-outs stand apart in the source and are kept apart here.

Test [1] has as its target one or more of HDAC-1, HDAC-2, HDAC-3, HDAC-4, HDAC-5, HDAC-6, HDAC-7, HDAC-8, HDAC-9, HDAC-10 and HDAC-11. Put plainly: Inhibition of Histone Deacetylase Enzymatic Activity (Boc-Lys(Ac)-AMC substrate, Fluor-de-Lys developer). In kind it is biochemical. Conditions: read-out: HDAC Inhibition (IC50 μM) HDAC Enzyme. On the procedure: The following protocol is used to assay the compounds of the disclosure.
The mixture is pre-incubated for 5 minutes at room temperature. The reaction is started by bringing the temperature to 37° C. and adding 16 μl substrate. Total reaction volume is 50 μl.
In the Tables 8, 9 and 10, A≦0.05 μM; 0.05 μM<B≦0.1 μM; 0.1 μM<C≦1 μM; and 1 μM<D≦10 μM.

For test [2], the system named is HDAC activity in primary mouse cortical cultures. The test is described as follows: Whole-Cell Histone Deacetylase (HDAC) Inhibition Assay in Primary Mouse Cortical Cultures. It counts as cell-based. To be noted: whole-cell (WC), mouse cortical neurons, read-out: HDAC Inhibition (IC50 μM) WC mouse cortical neurons. The method in brief: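 Primary neocortical neurons from E17 Balb/C mouse embryos were plated at 50000 cells/well and treated at DIV9 with ten-point DMSO dilutions for 16-18 h at 37° C, in triplicate. BOC-Lys(Ac)-AMC substrate was then added for 1 h. Fluor de Lys developer containing 1 uM TSA produced a fluorophore, which was read.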

Take `O=C(NO)c1ccc(C2=Nc3ccccc3Oc3c(OCCN4CCOCC4)cccc32)cc1` [(Z)—N-hydroxy-4-(4-(2-morpholinoethoxy)dibenzo[b,f][1,4]oxazepin-11-yl)benzamide]: the IC50 in test [1] (Table 8) was below 0.05 µM; in test [2] (Table 8) it was below 1 µM.
The matching figures for `C[S+]([O-])c1cccc2c1Oc1ccccc1N=C2c1ccc(C(=O)NO)cc1` (stereo not shown) [(Z)—N-hydroxy-4-(4-(methylsulfinyl)dibenzo[b,f][1,4]oxazepin-11-yl)benzamide]: 0.05 to 0.1 µM and 1 to 5 µM.
On the same counts, the results for `CS(=O)(=O)c1cccc2c1Oc1ccccc1N=C2c1ccc(C(=O)NO)cc1` [(Z)—N-hydroxy-4-(4-(methylsulfonyl)dibenzo[b,f][1,4]oxazepin-11-yl)benzamide] are below 0.05 µM and 1 to 5 µM.
On the same counts, the results for `CSc1cccc2c1Oc1ccccc1N=C2c1ccc(C(=O)NO)cc1` [(Z)—N-hydroxy-4-(4-(methylthio)dibenzo[b,f][1,4]oxazepin-11-yl)benzamide] are below 0.05 µM and 1 to 5 µM.
For the compound `O=C(NO)c1ccc(C2=Nc3ccccc3Oc3c(OC(F)(F)F)cccc32)cc1` [(Z)—N-hydroxy-4-(4-(trifluoromethoxy)dibenzo[b,f][1,4]oxazepin-11-yl)benzamide], the 50% inhibitory concentration (IC50) in test [1] (Table 8) is 0.1 to 1 µM; in test [2] (Table 8) it was above 15 µM.
On the same counts, the results for `O=C(NO)c1ccc(C2=Nc3ccccc3Oc3c2cccc3C(F)(F)F)cc1` [(Z)—N-hydroxy-4-(4-(trifluoromethyl)dibenzo[b,f][1,4]oxazepin-11-yl)benzamide] are below 0.05 µM and above 15 µM.
On the same counts, the results for `O=C(NO)c1ccc(C2=Nc3ccccc3Oc3c(O)cccc32)cc1` [(Z)—N-hydroxy-4-(4-hydroxydibenzo[b,f][1,4]oxazepin-11-yl)benzamide] are 0.05 to 0.1 µM and below 1 µM.
`COc1cccc2c1Oc1ccccc1N=C2c1ccc(C(=O)NO)cc1` [(Z)—N-hydroxy-4-(4-methoxydibenzo[b,f][1,4]oxazepin-11-yl)benzamide]: the IC50 in test [1] (Table 8) was in the range of 0.05 to 0.1 µM; in test [2] (Table 8), 1 to 5 µM.
As for `Cc1cccc2c1Oc1ccccc1N=C2c1ccc(C(=O)NO)cc1` [(Z)—N-hydroxy-4-(4-methyldibenzo[b,f][1,4]oxazepin-11-yl)benzamide], the IC50 was in the range of 0.05 to 0.1 µM in test [1] (Table 8) and 1 to 5 µM in test [2] (Table 8).
On the same counts, the results for `CCCc1cccc2c1Oc1ccccc1N=C2c1ccc(C(=O)NO)cc1` [(Z)—N-hydroxy-4-(4-propyldibenzo[b,f][1,4]oxazepin-11-yl)benzamide] are 0.1 to 1 µM and above 15 µM.
The matching figures for `COCCN1c2ccccc2N=C(c2ccc(C(=O)NO)cc2)c2ccccc21` [(Z)—N-hydroxy-4-(5-(2-methoxyethyl)-5H-dibenzo[b,e][1,4]diazepin-11-yl)benzamide]: 0.1 to 1 µM and 1 to 5 µM.
Consider `CC(C)N1c2ccccc2N=C(c2ccc(C(=O)NO)cc2)c2ccccc21` [(Z)—N-hydroxy-4-(5-isopropyl-5H-dibenzo[b,e][1,4]diazepin-11-yl)benzamide], for which the half-maximal inhibitory concentration (IC50) is below 0.05 µM in test [1] (Table 8) and below 1 µM in test [2] (Table 8).
The matching figures for `Cc1cccc2c1Oc1ccccc1C(c1ccc(C(=O)NO)cc1)=N2` [(Z)—N-hydroxy-4-(6-methyldibenzo[b,f][1,4]oxazepin-11-yl)benzamide]: 0.1 to 1 µM and 5 to 15 µM.
On the same counts, the results for `O=C(NO)c1ccc(C2=Nc3ccc(C(F)(F)F)cc3Oc3ccccc32)cc1` [(Z)—N-hydroxy-4-(7-(trifluoromethyl)dibenzo[b,f][1,4]oxazepin-11-yl)benzamide] are 0.1 to 1 µM and above 15 µM.
The matching figures for `O=C(NO)c1ccc(C2=Nc3cc(C(F)(F)F)ccc3Oc3ccccc32)cc1` [(Z)—N-hydroxy-4-(8-(trifluoromethyl)dibenzo[b,f][1,4]oxazepin-11-yl)benzamide]: 0.1 to 1 µM and 5 to 15 µM.
Take `Cc1ccc2c(c1)N=C(c1ccc(C(=O)NO)cc1)c1ccccc1O2` [(Z)—N-hydroxy-4-(8-methyldibenzo[b,f][1,4]oxazepin-11-yl)benzamide]: the values for the IC50 in test [1] (Table 8) and in test [2] (Table 8) were 0.05 to 0.1 µM and 1 to 5 µM, respectively.
In the case of `O=C(NO)c1cnc(N2CCn3c(nnc3C(F)(F)F)C2)nc1` [N-hydroxy-2-(3-(trifluoromethyl)-5,6-dihydro-[1,2,4]triazolo[4,3-a]pyrazin-7(8H)-yl)pyrimidine-5-carboxamide], the values for the IC50 in test [1] (Table 10) and in test [2] (Table 10) were 0.05 to 0.1 µM and 1 to 5 µM, respectively.
On the same counts, the results for `O=C(NO)c1cnc(N2CCn3c(nnc3-c3ccccc3)C2)nc1` [N-hydroxy-2-(3-phenyl-5,6-dihydro-[1,2,4]triazolo[4,3-a]pyrazin-7(8H)-yl)pyrimidine-5-carboxamide] are below 0.05 µM and 1 to 5 µM.
The matching figures for `O=C(Cc1ccc(CN2C(=O)c3ccccc3Oc3ccccc32)cc1)NO` [N-hydroxy-2-(4-((11-oxodibenzo[b,f][1,4]oxazepin-10(11H)-yl)methyl)phenyl)acetamide]: 0.1 to 1 µM and 1 to 5 µM.
For `O=C(NO)c1cnc(N2CC3CC(CN(c4cc(C(F)(F)F)ccn4)C3)C2)nc1` [N-hydroxy-2-(7-(4-(trifluoromethyl)pyridin-2-yl)-3,7-diazabicyclo[3.3.1]nonan-3-yl)pyrimidine-5-carboxamide], the IC50 is 0.1 to 1 µM in test [1] (Table 9) and above 15 µM in test [2] (Table 9).
On to `O=C(NO)c1cnc(N2C[C@H]3C[C@@H]2CN3c2cc(C(F)(F)F)ccn2)nc1` [N-hydroxy-2-((1R,4R)-5-(4-(trifluoromethyl)pyridin-2-yl)-2,5-diazabicyclo[2.2.1]heptan-2-yl)pyrimidine-5-carboxamide], for which the half-inhibitory concentration (IC50) was below 0.05 µM in test [1] (Table 9) and below 1 µM in test [2] (Table 9).
On the same counts, the results for `Cc1cccc(N2C[C@H]3C[C@@H]2CN3c2ncc(C(=O)NO)cn2)c1` [N-hydroxy-2-((1R,4R)-5-m-tolyl-2,5-diazabicyclo[2.2.1]heptan-2-yl)pyrimidine-5-carboxamide] are 0.05 to 0.1 µM and below 1 µM.
The matching figures for `Cc1ccc(N2C[C@H]3C[C@@H]2CN3c2ncc(C(=O)NO)cn2)cc1` [N-hydroxy-2-((1R,4R)-5-p-tolyl-2,5-diazabicyclo[2.2.1]heptan-2-yl)pyrimidine-5-carboxamide]: below 0.05 µM and below 1 µM.
The matching figures for `O=C(NO)c1cnc(N2C[C@@H]3C[C@H]2CN3c2ccccc2C(F)(F)F)nc1` [N-hydroxy-2-((1S,4S)-5-(2-(trifluoromethyl)phenyl)-2,5-diazabicyclo[2.2.1]heptan-2-yl)pyrimidine-5-carboxamide]: 0.1 to 1 µM and 1 to 5 µM.
Regarding `O=C(NO)c1cnc(N2C[C@@H]3C[C@H]2CN3c2cc(C(F)(F)F)nc3ccccc23)nc1` [N-hydroxy-2-((1S,4S)-5-(2-(trifluoromethyl)quinolin-4-yl)-2,5-diazabicyclo[2.2.1]heptan-2-yl)pyrimidine-5-carboxamide], the concentration for half-maximal inhibition (IC50) in test [1] (Table 9) is below 0.05 µM; in test [2] (Table 9), below 1 µM.
As for `O=C(NO)c1cnc(N2C[C@@H]3C[C@H]2CN3c2cccc(OC(F)(F)F)c2)nc1` [N-hydroxy-2-((1S,4S)-5-(3-(trifluoromethoxy)phenyl)-2,5-diazabicyclo[2.2.1]heptan-2-yl)pyrimidine-5-carboxamide], the figures for the IC50 in test [1] (Table 9) and in test [2] (Table 9) were below 0.05 µM and below 1 µM, respectively.
On the same counts, the results for `O=C(NO)c1cnc(N2C[C@@H]3C[C@H]2CN3C(=O)c2cccc(C(F)(F)F)c2)nc1` [N-hydroxy-2-((1S,4S)-5-(3-(trifluoromethyl)benzoyl)-2,5-diazabicyclo[2.2.1]heptan-2-yl)pyrimidine-5-carboxamide] are 0.05 to 0.1 µM and 1 to 5 µM.
On the same counts, the results for `O=C(NO)c1cnc(N2C[C@@H]3C[C@H]2CN3c2cccc(C(F)(F)F)c2)nc1` [N-hydroxy-2-((1S,4S)-5-(3-(trifluoromethyl)phenyl)-2,5-diazabicyclo[2.2.1]heptan-2-yl)pyrimidine-5-carboxamide] are below 0.05 µM and below 1 µM.
On the same counts, the results for `O=C(NO)c1cnc(N2C[C@@H]3C[C@H]2CN3c2cccc(C(F)(F)F)c2)s1` [N-hydroxy-2-((1S,4S)-5-(3-(trifluoromethyl)phenyl)-2,5-diazabicyclo[2.2.1]heptan-2-yl)thiazole-5-carboxamide] are below 0.05 µM and 1 to 5 µM.
`O=C(NO)c1cnc(N2C[C@@H]3C[C@H]2CN3c2cccc(SC(F)(F)F)c2)nc1` [N-hydroxy-2-((1S,4S)-5-(3-(trifluoromethylthio)phenyl)-2,5-diazabicyclo[2.2.1]heptan-2-yl)pyrimidine-5-carboxamide]: the values for the concentration for half-maximal inhibition (IC50) in test [1] (Table 9) and in test [2] (Table 9) were below 0.05 µM and 1 to 5 µM, respectively.
On the same counts, the results for `COc1cccc(N2C[C@@H]3C[C@H]2CN3c2ncc(C(=O)NO)cn2)c1` [N-hydroxy-2-((1S,4S)-5-(3-methoxyphenyl)-2,5-diazabicyclo[2.2.1]heptan-2-yl)pyrimidine-5-carboxamide] are below 0.05 µM and below 1 µM.
As to `O=C(NO)c1cnc(N2C[C@@H]3C[C@H]2CN3c2ccc(C(F)(F)F)cc2)nc1` [N-hydroxy-2-((1S,4S)-5-(4-(trifluoromethyl)phenyl)-2,5-diazabicyclo[2.2.1]heptan-2-yl)pyrimidine-5-carboxamide], the concentration for half-maximal inhibition (IC50) in test [1] (Table 9) is below 0.05 µM; in test [2] (Table 9), 1 to 5 µM.
